The values that follow come from EP0852148B1, “Products having anti-microbial activity” (SION MICROTEC LTD., priority 1997, dated 1998).

Where a name gives a salt, the structure may show the parent alone. Read-outs that look alike come from different tables or passages of the source.

Data set [1] concerns Escherichia coli (EC). Description: Inhibition zone on bacterial lawn on agar plate, daily sequential transfer of sample. It is filed as cell-based. How it is done: (§1) The antimicrobial activity of the product was tested on lawns of several bacteria: Staphylococcus aureus (SA), S. epidermidis (SE), Escherichia coli (EC) and Pseudonomas aeruginosa (PA), inoculated on agar plates, by placing a sample of about 2 cm^2 on the surface of the plate, and measurement of the inhibition zone after growth of the bacteria for 18 hours at 37°C. After 24 hours, the sample was passed sequentially to another inoculated agar plate and the inhibition zone measured. This daily transfer procedure continued up to the loss of growth-inhibiting activity.
(§2) The data set forth in the Tables herein is presented as follows: a = no inhibition b = partial growth inhibition under matrix c = total growth inhibition under matrix d = growth inhibition beyond the matrix, but at less than 1 mm E x-y = growth inhibition in mm; x = minimum distance; y = maximum distance.

Data set [2] relates to S. epidermidis (SE). The description is as above. It is filed as cell-based. How it is done: as §1, §2
In data set [3] the test system is Pseudonomas aeruginosa (PA). The data set is described as above. The data set is classed as cell-based. How it is done:
as §1, with “A matrix made of cotton gauze 75 mm wide, in accordance with the British Pharmacopoeia, was soaked in 0.5% chlorohexidine gluconate (CHXG) aqueous solution at 25°C and dried by forced hot air at 60°C in a continuous process. The” for “The”
as §2

The subject of data set [4] is Staphylococcus aureus (SA). The description is as above. It is filed as cell-based. As to conditions: for Growth Inhibition SA: procedure of Example 1 (cotton gauze). How it is done:
as §1, with “A matrix made of cotton gauze 75 mm wide, in accordance with the British Pharmacopoeia, was soaked in 0.5% chlorohexidine gluconate (CHXG) aqueous solution at 25°C and dried by forced hot air at 60°C in a continuous process. The” for “The”
as §2

Data set [5] has as its system Staphylococcus aureus (SA). The data set is described as above. The data set is classed as cell-based.
Data set [6] has as its system human immunodeficiency virus type I. The following applies: aqueous solution, in 15 seconds; cited from earlier work.
For data set [7] the following is noted: in vivo; cited from earlier work.
Data set [8] deals with Staphylococcus aureus (SA). The experiment in a line: Inhibition zone on bacterial lawn on agar plate, daily sequential transfer of sample. The data set is classed as cell-based. As to conditions: procedure of Example 1 (cotton gauze). How it is done: A matrix made of cotton gauze 75 mm wide, in accordance with the British Pharmacopoeia, was soaked in 0.5% chlorohexidine gluconate (CHXG) aqueous solution at 25°C and dried by forced hot air at 60°C in a continuous process. The antimicrobial activity of the product was tested on lawns of several bacteria: Staphylococcus aureus (SA), S. epidermidis (SE), Escherichia coli (EC) and Pseudonomas aeruginosa (PA), inoculated on agar plates, by placing a sample of about 2 cm^2 on the surface of the plate, and measurement of the inhibition zone after growth of the bacteria for 18 hours at 37°C. After 24 hours, the sample was passed sequentially to another inoculated agar plate and the inhibition zone measured. This daily transfer procedure continued up to the loss of growth-inhibiting activity. The data set forth in the Tables herein is presented as follows: a = no inhibition b = partial growth inhibition under matrix c = total growth inhibition under matrix d = growth inhibition beyond the matrix, but at less than 1 mm E x-y = growth inhibition in mm; x = minimum distance; y = maximum distance.

[9] abbreviates: Matrix Cellular triacetate, CHXH 0.1% or CHXG 1.0%.
[10] abbreviates: Matrix Nylon, CHXH 0.1% or CHXG 1.0%.
The mark [11] stands for this setting: Matrix Polyethylene, CHXH 0.1% or CHXG 1.0%.
[12] abbreviates: Matrix Polypropylene, CHXH 0.1% or CHXG 1.0%.
Setting [13] is: non-woven matrix (polyethylene, viscose and cotton), CHXG Concentration 2 %.
[14] abbreviates: non-woven matrix (polyethylene, viscose and cotton), CHXG Concentration 5 %.
Setting [15] is: Matrix Nylon, CHXH 0.1% or CHXG 1.0%, hydrochloride.
Where [16] appears, read: Matrix Polyethylene, CHXH 0.1% or CHXG 1.0%, hydrochloride.
Where [17] appears, read: Matrix Polypropylene, CHXH 0.1% or CHXG 1.0%, hydrochloride.

Take `N=C(NCCCCCCNC(=N)NC(=N)Nc1ccc(Cl)cc1)NC(=N)Nc1ccc(Cl)cc1` [CHXG, chlorohexidine gluconate]: the “Microorganism Growth Inhibition EC” value in data set [1] (setting [9]) is recorded as “E 3-4 mm”; in data set [1] (setting [10]), “E 2-4 mm”; in data set [1] (setting [11]) it was “E 2-3 mm”; in data set [1] (setting [12]), “E 2-4 mm”; in data set [1] (setting [13]), “E 2-3 mm”; in data set [1] (setting [14]) it was “E 3-4 mm”. Moreover, the “Microorganism Growth Inhibition SE” value in data set [2] (setting [9]) was “E 4 mm”; in data set [2] (setting [11]), “E 3 mm”; in data set [2] (setting [12]) it was “E 2-3 mm”; in data set [2] (setting [13]), “E 3-5 mm”; in data set [2] (setting [14]), “E 4-5 mm”. Further, the “Microorganism Growth Inhibition PA” value in data set [3] (setting [9]) is recorded as “E 1 mm”; in data set [3] (setting [10]) it was “d (growth inhibition beyond the matrix, but at less than 1 mm)”; in data set [3] (setting [11]), “E 1 mm”; in data set [3] (setting [13]), “d (growth inhibition beyond the matrix, but at less than 1 mm)”; in data set [3] (setting [14]) it was “E 1-2 mm”. Further, the “Growth Inhibition SA” value in data set [4] (Day 1) is recorded as “E 4-5 mm”; in data set [4] (Day 2) it was “E 3-4 mm”; in data set [4] (Day 3), “E 2-3 mm”; in data set [4] (Day 4) it was “E 2-3 mm”. Also, the “Microorganism Growth Inhibition SA” value is “E 4-5 mm” in data set [5] (setting [9]); “E 3-5 mm” in data set [5] (setting [10]); “E 3-5 mm” in data set [5] (setting [11]); “E 2-5 mm” in data set [5] (setting [12]); “E 5-7 mm” in data set [5] (setting [13]); “E 4-5 mm” in data set [5] (setting [14]).

For the compound `N=C(NCCCCCCNC(=N)NC(=N)Nc1ccc(Cl)cc1)NC(=N)Nc1ccc(Cl)cc1` [CHXH, chlorohexidine hydrochloride], the “Microorganism Growth Inhibition EC” value in data set [1] is recorded as “E 2-4 mm”; in data set [1] (setting [15]), “E 2-3 mm”; in data set [1] (setting [16]) it was “E 1-3 mm”; in data set [1] (setting [17]), “E 1-3 mm”. In addition, the “Microorganism Growth Inhibition SE” value is listed as “E 3-4 mm” in data set [2], “E 2-3 mm” in data set [2] (setting [10]), “E 2 mm” in data set [2] (setting [16]) and “E 1-2 mm” in data set [2] (setting [17]). In addition, the “Microorganism Growth Inhibition PA” value in data set [3] is “E 1-2 mm”. The “Microorganism Growth Inhibition SA” value in data set [4] is listed as “E 5-6 mm”; in data set [5] (setting [15]), “E 3-4 mm”; in data set [5] (setting [16]), “E 3-4 mm”; in data set [5] (setting [17]) it was “E 2-4 mm”.

Consider `CCCCCCCCCCCCCCCC[n+]1ccccc1.[Cl-]` [Example 844, Cetyl piridinium chloride], for which the “Growth Inhibition SA” value in data set [4] (Day 1) is reported as “E 3-4 mm”; in data set [4] (Day 2), “E 5-6 mm”; in data set [4] (Day 3), “E 3-4 mm”; in data set [4] (Day 4) it was “E 2-4 mm”.

Regarding `CCCCCCCCCCCCCCCC[N+](C)(C)Cc1ccccc1.[Cl-]` [Example 861, Benzyl dimethyl hexocylammonium chloride], the “Growth Inhibition SA” value was “E 3-5 mm” in data set [4] (Day 1), “E 3-4 mm” in data set [4] (Day 2), “E 3-4 mm” in data set [4] (Day 3) and “E 2-3 mm” in data set [4] (Day 4).

As for `[H]/N=C(\N/C(=N/[H])NCCCCCCNC(=N)NC(=N)Nc1ccc(Cl)cc1)Nc1ccc(Cl)cc1` [chlorhexidine], in data set [6], the “inactivation of human immunodeficiency virus type I” value is on record as 100%.

For orientation: LD50 means the dose at which mortality reaches 50%. Regarding `Clc1nc(Cl)nc(Cl)n1` [cyanuric chloric linking group, cyanuric chloride], the LD50 in data set [7] is recorded as 18 mg/kg.

Take Bacitracin [Example 846]: the “Growth Inhibition SA” value in data set [8] (Day 1) is on record as “E 4-6 mm”; in data set [8] (Day 2), “E 1-3 mm”.

For “Septabicdidecyl dimethyl ammonium bromide [Example 868]”, the “Growth Inhibition SA” value is listed as “E 5-6 mm” in data set [4] (Day 1), “E 5-6 mm” in data set [4] (Day 2), “E 4-5 mm” in data set [4] (Day 3) and “E 3-4 mm” in data set [4] (Day 4).
